For two compounds, Km and stoichiometry N results are on record in article PMC7329984, “A Broad Temperature Active Lipase Purified From a Psychrotrophic Bacterium of Sikkim Himalaya With Potential Application in Detergent Formulation” (Frontiers in Bioengineering and Biotechnology, 2020).

The test system of one test is T1, ERMR1:04 lipase.
T1 construct: gene alpha/beta hydrolase; native extracellular enzyme purified from culture supernatant (ammonium sulfate, Sephadex G-100, Octyl-Sepharose); gene not firmly identified: MALDI top hit alpha/beta hydrolase of Solibacillus sp
The test can be described thus: p-nitrophenol release at […] nm; Lineweaver-Burk plot. It is filed as biochemical, Chryseobacterium polytrichastri. Particulars: 50 mM Tris pH 8, 37°C; 0.025-0.3 mM substrate.

The target in test [1] is extracellular lipase of Chryseobacterium polytrichastri ERMR1:04 (Chryseobacterium polytrichastri ERMR1:04 (endogenous, secreted)). The test can be described thus: native gel or EMSA; 10% native PAGE of the Octyl-Sepharose purified lipase (250 kDa band) compared with 12% SDS-PAGE (39.8 kDa band). In general terms: A gel shift assay detects complexes by their altered migration in electrophoresis.

Usually Km stands for the concentration of substrate that gives half-maximal velocity. The term stoichiometry N denotes the number of molecules, sites or subunits per partner or assembly.

Consider `CCCCCCCCCCCCCCCC(=O)Oc1ccc([N+](=O)[O-])cc1` [pNPP, p-nitrophenyl palmitate], for which the Km with ERMR1:04 lipase is 104 µM.
In test [1], “extracellular lipase of Chryseobacterium polytrichastri ERMR1:04 (enzyme)” returned a stoichiometry N of 6.
